Where a chain is given by its changes, count along the chain named. “Also recorded” adds a separate entry of the source.
Assays:
[1] = test system: AR-overexpressed LNCaP xenograft tumors; experiment: AR-overexpressed LNCaP xenograft model in castrated SCID mice; type: in vivo
Experimental: FIG. 7 is a graph of tumor size. AR overexpressing LNCaP cells were injected in the flanks of castrated SCID mice, subcutaneously. When tumors reached about 100 cubic mm, they were randomized into five groups. Each group had nine animals. […]. The tumors were measured three-dimensionally, width, length and depth, using a caliper.
FIG. 8 depicts experimental results of tumor size. At day 18, the animals were imaged via an optical CCD camera, 3 hours after last dose of treatment. A ROI was drawn over the tumor for luciferase activity measurement in photon/second. The right panels is a representation of the ROIs measurements.
Compounds of the invention are used to examine if the diaryihydantoin derivatives have in vivo effects on hormone refractory prostate cancer. First we examine this compound on xenograft tumors established from AR-overexpressed LNCaP cells. Engineered cells in Matrigel (Collaborative Biomedical) are injected subcutaneously into the flanks of the castrated male SCID mice. Tumor size is measured weekly in three dimensions using calipers. After xenograft tumors established (tumor size at least 40 mm^3), mice with tumors are randomized and treated with different doses of compounds orally once daily. The inhibitory effect on growth of AR-overexpressed LNCaP xenograft model is studied as follows. Mice with established LN-AR xenograft tumors are randomized and treated with indicated compounds orally once daily. Tumor size are measured by caliber.
All animal experiments were performed in compliance with the guidelines of the Animal Research Committee of the University of California at Los Angeles. Animals were bought from Taconic and maintained in a laminar flow tower in a defined flora colony. LNCaP-AR and LNCaP-vector cells were maintained in RPMI medium supplemented with 10% FBS. 10^6 cells in 100 μl of 1:1 Matrigel to RPMI medium were injected subcutaneously into the flanks of intact or castrated male SCID mice. Tumor size was measured weekly in three dimensions (length×width×depth) using calipers. Mice were randomized to treatment groups when tumor size reached approximately 100 mm^3. Drugs were given orally every day at 10 mg/kg and 50 mg/kg. To obtain pharmacodynamic readout, the animals were imaged via an optical CCD camera, 3 hours after last dose of the treatment. A ROI is drawn over the tumor for luciferase activity measurement in photon/second. The right panels were a representation of the ROIs measurements. […]

LogP = type: physicochemical
androgen receptor = molecular target: T1, androgen receptor (Homo sapiens, UniProt P10275, T878A); details: 10 uM, 24 hours, with or without 100 pM R1881, LNCaP
T1 sequence (P10275 1-920 T878A): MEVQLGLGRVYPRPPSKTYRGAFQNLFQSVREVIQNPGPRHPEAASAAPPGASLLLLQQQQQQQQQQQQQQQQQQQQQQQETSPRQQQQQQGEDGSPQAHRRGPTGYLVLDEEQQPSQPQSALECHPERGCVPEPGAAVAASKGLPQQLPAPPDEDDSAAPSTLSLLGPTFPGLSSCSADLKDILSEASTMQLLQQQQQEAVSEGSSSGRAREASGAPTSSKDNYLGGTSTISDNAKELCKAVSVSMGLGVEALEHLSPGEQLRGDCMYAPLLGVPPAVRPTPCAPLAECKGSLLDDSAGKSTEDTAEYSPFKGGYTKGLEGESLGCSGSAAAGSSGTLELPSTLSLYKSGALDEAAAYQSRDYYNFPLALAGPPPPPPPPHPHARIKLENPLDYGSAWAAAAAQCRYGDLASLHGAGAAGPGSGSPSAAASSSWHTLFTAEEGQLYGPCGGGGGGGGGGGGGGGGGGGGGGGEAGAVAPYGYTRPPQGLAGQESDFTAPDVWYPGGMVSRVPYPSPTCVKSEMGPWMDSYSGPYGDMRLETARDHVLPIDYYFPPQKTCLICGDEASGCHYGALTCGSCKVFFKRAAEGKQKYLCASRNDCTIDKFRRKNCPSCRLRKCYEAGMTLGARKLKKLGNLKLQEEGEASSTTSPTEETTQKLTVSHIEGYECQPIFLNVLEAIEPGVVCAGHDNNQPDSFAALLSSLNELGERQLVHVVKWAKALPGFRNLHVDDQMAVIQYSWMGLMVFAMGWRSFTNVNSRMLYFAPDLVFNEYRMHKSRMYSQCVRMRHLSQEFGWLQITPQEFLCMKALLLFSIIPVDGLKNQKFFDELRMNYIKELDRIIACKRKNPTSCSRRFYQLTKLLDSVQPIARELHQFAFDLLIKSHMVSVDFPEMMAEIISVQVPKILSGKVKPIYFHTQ

AR = molecular target: T2, AR (Homo sapiens, UniProt P10275); type: cell-based; parameters: rows headed: IC50 (nM) Reporter; Fold induction, AR response reporter; agonistic activity on AR response reporter (w); details: 125 nM to 1000 nM, FIG. 3
T2 sequence (P10275 1-920): T1 sequence (P10275 1-920 T878A) with A878T
Experimental: The compounds were subjected to tests using an artificial AR response reporter system in a hormone refractory prostate cancer cell line. […] After two days of incubation, reporter activities were assayed.

CNC(=O)c1ccc(N2C(=S)N(c3ccc(C#N)c(C(F)(F)F)c3)C(=O)C23CCC3)cc1F [NC53, N-methyl-4-[7-(4-cyano-3-trifluoromethylphenyl)-8-oxo-6-thioxo-5,7-diaza-spiro[3.4]oct-5-yl]-2-fluorobenzamide]
photon emission associated with luciferase activity ([1]; FIG. 8, day 18, relative to vehicle): photon emission decreased
tumor growth / tumor volume ([1]; oral once daily, FIG. 7: 10 or 50 mg/kg, 18 days): effective to prevent tumor growth and even to cause tumor shrinkage, and was distinctly more effective than bicalutamide; also recorded: tumors decreased in size
logP (LogP): 3.2
androgen receptor protein level (androgen receptor): destabilized androgen receptor proteins; also recorded: androgen receptor protein is degraded
luciferase activity in LNCaP-AR cells (AR): acted to reduce luciferase activity

From patent US8648105B2, “Diarylthiohydantoin compounds” (The Regents of the University of California, priority 2006, dated 2014)
